From PMC10451377, “Rationally Designed Pyrimidine Compounds: Promising Novel Antibiotics for the Treatment of Staphylococcus aureus-Associated Bovine Mastitis” (Antibiotics, 2023)
In brackets after ≈: the same amount, converted by molar mass.

Experiments:
[1] = test system: Staphylococcus aureus CMRSA-10; experiment: Broth microdilution MIC; assay type: cell-based; conditions: CMRSA10, S. aureus CMRSA-10, read-out: Broth Microdilution MIC
Description: (§1) Reference strains for this study (S. aureus ATCC 29213, ATCC 29740 [bovine mastitis strain Newbould], S. epidermidis ATCC 12228, E. coli ATCC 35695, E. faecalis ATCC 29212) were obtained from the American Type Culture Collection (ATCC, Rockville, MD). S. aureus strains CMRSA-10 and CMRSA-2 were obtained from the Laboratoire de santé publique du Québec (LSPQ, Sainte-Anne-de-Bellevue, QC, Canada) and are Canadian CA-MRSA USA-300 and HA-MRSA USA-100 clones, respectively. The strain E. coli imp4213 (lptD), used as a control in MIC assays, is a derivative of E. coli ATCC 35695 (E. coli MC4100) with an increased membrane permeability. […] Other MRSA strains used in this study are clinical isolates of human origin obtained from the microbiology laboratory of the Centre Hospitalier Universitaire de Sherbrooke (CHUS, Sherbrooke, QC, Canada). Bovine mastitis strains (S. aureus, S. chromogenes, S. haemolyticus, S. hominis, S. simulans) were obtained from the Canadian Bovine Mastitis and Milk Quality Research Network (CBRQMN, St-Hyacinthe, QC, Canada). Among these strains, S. aureus 2117 is a high producer of biofilm and was used in the biofilm-eradication assay. S. epidermidis isolates were provided by Centre de Recherche en Infectiologie (CRI) de Québec (Québec, QC, Canada).

[2] = test system: Staphylococcus aureus CMRSA-2; experiment: Broth microdilution MIC; assay type: cell-based; conditions: CMRSA2, S. aureus CMRSA-2, read-out: Broth Microdilution MIC
Description: as §1

[3] = test system: Escherichia coli ΔlptD4213; experiment: microbe, parasite or virus in culture; assay type: cell-based; conditions: read-out: Broth Microdilution MIC
Description: as §1

Bovine S. aureus = experiment: Susceptibility of isolate panel (MIC50, MIC90, range); assay type: cell-based, Staphylococcus aureus; conditions: Bovine S. aureus, 48 isolates
Description: as §1
(§2) The antibacterial activity of the most promising compound, PC206, was also evaluated against larger groups of clinical isolates of human and animal origin. The MIC50 and MIC90 values represented the concentrations of drug required to inhibit the growth of 50% and 90% of the bacterial strains tested, respectively.

MRSA = experiment: as above; assay type: cell-based, Staphylococcus aureus; conditions: 42 isolates
Description: as §1, §2

[4] = test system: S. aureus bovine strain 2117 embedded in preformed biofilm; experiment: Biofilm-eradication test (MBEC assay); assay type: cell-based, Staphylococcus aureus; conditions: 24 h exposure
Method: The viability of bacteria in preformed biofilms treated with PC206 was evaluated using the MBEC assay™ system (formerly the Calgary Biofilm Device). The device consists of a plastic lid with 96 pegs and a 96-well plate. […] Plates were incubated at 35 °C for 24 h with agitation (120 rpm). […] The pegs were washed three times with PBS and the biofilm was sonicated for 10 min, and then transferred into a new 96-well base plate. The 96-well plate was centrifuged for 5 min at 180 g to recover the detached bacteria.

LDH release assay [5] = assay type: cell-based; conditions: human, HepG2 cells
LDH release assay [6] = assay type: cell-based; conditions: bovine, MAC-T cells
[7] = test system: HepG2 and MAC-T cells versus S. aureus Newbould; experiment: Selectivity ratios over both assays and both cell lines; assay type: cell-based; conditions: over MTT and LDH assays
Method: All CC50 values are reported in Table 3, and plots are provided in the Supplementary Information (Supplementary Figure S2). PC371 had no effect on cell viability even at the highest concentrations tested (CC50 > 600 μM) in both the MTT and the LDH assay and for the two cell lines tested. For the three other compounds, in both cell lines and both assays, a correlation was observed between the effect on cell viability and the length of their aliphatic chain. CC50 of PC372 (5 carbons) was higher than that of PC206 (6 carbons), and both were higher than that of PC383 (10 carbons). Indeed, for the MAC-T cells in the MTT assay, the values were >600 μM (PC372), 317 μM (PC206), and 13.5 μM (PC383). Again, for the MAC-T cell line, the values for the LDH assay were >600 μM (PC372 and PC206) and 23.6 μM (PC383). Similar results were obtained with the HepG2 cells. […] Overall, the MAC-T cells tolerated better exposure to the compounds than the HepG2 cells. To assess the selectivity of the PC2 analogs towards S. aureus, selectivity ratios were calculated. These ratios were obtained by dividing the cytotoxicity CC50 values of an analog by its MIC against S. aureus Newbould. It was not possible to calculate the selectivity ratio for PC371 as its CC50 and MIC values exceeded the maximum values tested.

[8] = test system: S. aureus Newbould (ATCC 29740); experiment: Murine mastitis model; conditions: two intramammary doses of 500 µg
[9] = test system: Staphylococcus aureus ATCC 29213; experiment: Broth microdilution MIC; conditions: ATCC29213, read-out: Broth Microdilution MIC
[10] = test system: Enterococcus faecalis ATCC 29212; experiment: Broth microdilution MIC; conditions: ATCC29212, read-out: Broth Microdilution MIC
[11] = Staphylococcus aureus, read-out: MIC50
[12] = Staphylococcus aureus, read-out: MIC90

SMILES: CCCCCCNc1cc(N)nc(N)n1 [PC206]
- MIC [1]: 4 mg/L (≈ 19.1 µM)
- MIC [2]: 8 mg/L (≈ 38.2 µM)
- MIC [3]: > 128 mg/L
- MIC Range (Bovine S. aureus): 0.5 to 64 mg/L
- MIC50 (Bovine S. aureus; [11]): 8 mg/L (≈ 38.2 µM)
- MIC90 (Bovine S. aureus; [12]): 16 mg/L (≈ 76.4 µM)
- MIC Range (MRSA): 2 to 128 mg/L
- MIC50 (MRSA; [11]): 8 mg/L (≈ 38.2 µM)
- MIC90 (MRSA; [12]): 16 mg/L (≈ 76.4 µM)
- Reduction in CFU/peg compared to the untreated biofilm ([4]; 32 µg/mL): 1.28 log10
- Reduction in CFU/peg compared to the untreated biofilm ([4]; 128 µg/mL): 2.40 log10
- Reduction in CFU/peg compared to the untreated biofilm ([4]; 512 µg/mL): 5.43 log10
- CC50 at 24 h (LDH release assay [5]): 149 ± 24 µM
- CC50 at 24 h (LDH release assay [6]; 24 h): > 600 µM
- CC50 at 24 h (LDH release assay [6]; converted from μM): > 125 mg/L
- Selectivity ratio (CC50/MIC against S. aureus Newbould), overall [7]: above 3.9
- Tolerability in mice and mammary gland tissues [8]: No inflammation, damage, nor adverse effects were observed
- Difference in median bacterial counts versus untreated mice ([8]; 1 and 4 h after infection, glands harvested 14 h post-infection): 1.24 log10 CFU/g of gland
- MIC [9]: 8 mg/L (≈ 38.2 µM)
- MIC [10]: 128 mg/L (≈ 612 µM)
